From patent US9012433B2, “Substituted tetracycline compounds” (Paratek Pharmaceuticals, Inc., priority 2006, dated 2015)
In brackets after ≈: the same amount, converted by molar mass. Read-outs that look alike come from different tables or passages of the source.

What was measured:
P. acnes ATCC 6919 = assay: Antibacterial MIC, CLSI broth microdilution; assay type: cell-based; details: Cutibacterium acnes, ATCC6919; 35° C., 18-24 hours
Description: (§1) Grain (−) and gram (+) antibacterial minimum inhibitory concentration (MIC) values (μg/mL) were obtained using CLSI methodology for anti-bacterial susceptibility testing. On each day of testing, serial dilutions of compounds were prepared in microdilution plates using a Tecan robotic workstation. Mueller Hinton broth cultures of representative sensitive and resistant gram negative strains were grown or adjusted to match the turbidity of a 0.5 McFarland standard. 1:200 dilutions were made in an appropriate broth (cation supplemented Mueller Hinton broth) to allow a final inoculum of 1×10^5 cfu. Plates were incubated at 35° C. in ambient air for 18-24 hours, were read spectrophotometrically and checked manually for evidence of bacterial growth. The lowest dilution of compound that inhibited growth was recorded as the MIC. Lysed horse blood was used to supplement broth for testing S. pneumoniae. The MIC's for each compound were assessed against S. aureus, S. pneumoniae, P. acnes, E. coli and B. theta.

[1] = tested on: S. pneumoniae 157E - Strep; assay: Antibacterial MIC, CLSI broth microdilution; assay type: cell-based; details: Streptococcus pneumoniae, 157ESTREP; 35° C., 18-24 hours; lysed horse blood
Description: as §1

E. coli MG 1655 = assay: Antibacterial MIC, CLSI broth microdilution; assay type: cell-based; details: Escherichia coli, MG1655; 35° C., 18-24 hours
Description: as §1

S. aureus RN450 [2] = assay: Antibacterial MIC, CLSI broth microdilution; assay type: cell-based; details: Staphylococcus aureus, RN450; 35° C., 18-24 hours
Description: as §1

E. coli ATCC 25922 = assay: Antibacterial MIC, CLSI broth microdilution; assay type: cell-based; details: Escherichia coli, ATCC25922; 35° C., 18-24 hours
Description: as §1

[3] = tested on: B. thetaiotaomicron ATCC 29741; assay: Antibacterial MIC, CLSI broth microdilution; assay type: cell-based; details: Bacteroides thetaiotaomicron
Description: as §1

P. acnes ATCC 11827 = assay: Antibacterial MIC, CLSI broth microdilution; assay type: cell-based; details: Cutibacterium acnes, ATCC11827; 35° C., 18-24 hours
Description: as §1

in vitro = assay type: cell-based
Description: Mammalian cell cytotoxicity was assessed to evaluate potential in vivo risks associated with the tetracycline compounds of the invention. A soluble, non-toxic redox dye (“Resazurin”; Alamar Blue) was used to assess a tetracycline compound's effect on cellular metabolism. At the onset of the experiment, cultures of mammalian COS-1 or CHO cells were washed, trypsinized, and harvested. […] On the next day, serial dilutions of test drug were prepared under sterile conditions and transferred to cell plates. Plates were then incubated under the above conditions for 24 hours. Following the incubation period, the media/drug was aspirated, and 50 μL of resazurin was added. Plates were then incubated under the above conditions for 2 hours and then in the dark at room temperature for an additional 30 minutes. Fluorescence measurements were taken (excitation 535 nm, emission 590 nm) and toxic effects in treated versus control cells were compared based on the degree of fluorescence in each well.

S. aureus RN450 [4] = assay: In vivo anti-bacterial activity, S. aureus model; details: mice, 24 hours; for ED50 / responders at 5 mg/kg: Staphylococcus aureus, sc; for ED50: lethal IP S. aureus RN450, subcutaneous, read-out: PD50 (dose that protects 50% of the animals); for responders at 5 mg/kg: read-out: Percent Survival
Description: Groups of five mice were injected intraperitoneally with a lethal dose of S. aureus RN450 in a medium of mucin. Mice were evaluated at 24 hours to determine survival. […] In some instances, a dose response study was performed with the compound such that a PD50 (a dose of compound that protects 50% of the animals) could be calculated.

[5] = Half-life of oxidation, sodium periodate accelerated oxidation; assay type: physicochemical
Description: Not to be limited by theory, it is believed that the tissue staining may be caused oxidative instability. The tetracycline compounds were subjected to accelerated oxidation in a continuous-flow microreactor using a 15 molar excess of sodium periodate at pH 11 and 22° C. Aliquots of each reaction mixture were quenched at various time points with ascorbic acid and the disappearance of each compound was determined by RP-HPLC. Pseudo first-order rate constants and t1/2 values were obtained from the plots of log (Ao-At/Ao) versus time, where Ao is the HPLC area determined for each compound at time=0 and At is the HPLC area at time=t.

[6] = ATCC29741, 35° C., 18-24 hours, read-out: MIC B. thetaiotaomicron ATCC 29741
[7] = lethal IP S. aureus RN450, single subcutaneous dose 5 mg/kg
[8] = ATCC29741, read-out: MIC B. thetaiotaomicron ATCC 29741

Row | Compound | MIC (P. acnes ATCC 6919) | MIC [1] | MIC (E. coli MG 1655) | MIC (S. aureus RN450 [2]) | MIC (E. coli ATCC 25922) | MIC [3, 6] | MIC (P. acnes ATCC 11827) | IC50 at 24 h (in vitro; African green monkey) | IC50 at 24 h (in vitro; Chinese hamster) | ED50 (S. aureus RN450 [4]) | half-life ([5]; 15 molar excess of sodium periodate, pH 11, 22° C., read-out: half-life for oxidation (converted)) | responders at 5 mg/kg (S. aureus RN450 [4]; [7]) | MIC [3, 8] | Percent Survival (S. aureus RN450 [4]; lethal IP S. aureus RN450, single subcutaneous dose 5 mg/kg, 5 mg/kg) | half-life ([5]; buffer, pH 11)
1 | CNc1c(-c2ccc(O)c3c2C[C@H]2C[C@H]4[C@H](N(C)C)C(O)=C(C(N)=O)C(=O)[C@@]4(O)C(O)=C2C3=O)c(=O)c1=O [AD, (4S,4aS,5aR,12aS)-4-Dimethylamino-3,10,12,12a-tetrahydroxy-7-(2-methylamino-3,4-dioxo-cyclobut-1-enyl)-1,11-dioxo-1,4,4a,5,5a,6,11,12a-octahydro-naphthacene-2-carboxylic acid amide] | < 4 µg/mL | < 4 µg/mL | 4 to 8 µg/mL (≈ 7.64 to 15.3 µM) | < 4 µg/mL | 4 to 8 µg/mL (≈ 7.64 to 15.3 µM) | > 8 µg/mL | < 4 µg/mL | < 35 µg/mL | < 35 µg/mL | 4.54 mg/kg |  |  |  |  | 
2 | C=CCONCc1ccc(O)c2c1C[C@H]1C[C@H]3[C@H](N(C)C)C(O)=C(C(N)=O)C(=O)[C@@]3(O)C(O)=C1C2=O [AF] | < 4 µg/mL | < 4 µg/mL | 4 to 8 µg/mL (≈ 8.01 to 16 µM) | < 4 µg/mL | 4 to 8 µg/mL (≈ 8.01 to 16 µM) | < 4 µg/mL | < 4 µg/mL | 35 to 75 µg/mL (≈ 70.1 to 150 µM) | 35 to 75 µg/mL (≈ 70.1 to 150 µM) | 0.23 mg/kg |  |  |  |  | 
3 | CN(C)c1cc(C#N)c(O)c2c1C[C@H]1C[C@H]3[C@H](N(C)C)C(O)=C(C(N)=O)C(=O)[C@@]3(O)C(O)=C1C2=O [B] | < 4 µg/mL | < 4 µg/mL | > 8 µg/mL | < 4 µg/mL | > 8 µg/mL | 4 to 8 µg/mL (≈ 8.29 to 16.6 µM) | < 4 µg/mL | < 35 µg/mL | < 35 µg/mL |  | 8.25 min |  |  |  | 
4 | CN(C)c1cccc2c1C[C@H]1C[C@H]3[C@H](N(C)C)C(O)=C(C(N)=O)C(=O)[C@@]3(O)C(O)=C1C2=O [C] | < 4 µg/mL | < 4 µg/mL | > 8 µg/mL | < 4 µg/mL | > 8 µg/mL | > 8 µg/mL | < 4 µg/mL | > 75 µg/mL | > 75 µg/mL |  |  | 100% |  |  | 
5 | CC(C)ONCc1ccc(O)c2c1C[C@H]1C[C@H]3[C@H](N(C)C)C(O)=C(C(N)=O)C(=O)[C@@]3(O)C(O)=C1C2=O [DV, (4S,4aS,5aR,12aS-4-Dimethylamino-3,10,12,12a-tetrahydroxy-7-isopropoxyamino-methyl)-1,11-dioxo-1,4,4a,5,5a,6,11,12a-octahydro-naphthacene-2-carboxylic acid amide] | < 4 µg/mL | < 4 µg/mL | > 8 µg/mL | < 4 µg/mL | 4 to 8 µg/mL (≈ 7.98 to 16 µM) | 4 to 8 µg/mL (≈ 7.98 to 16 µM) | < 4 µg/mL | < 35 µg/mL | < 35 µg/mL | 1.1 mg/kg |  |  |  |  | 
6 | CN(C)[C@@H]1C(O)=C(C(N)=O)C(=O)[C@@]2(O)C(O)=C3C(=O)c4c(O)ccc(CNOCCF)c4C[C@H]3C[C@@H]12 [DW, (4S,4aS,5aR,12aS)-4-Dimethylamino-7-[(2-fluoro-ethoxyamino)-methyl]-3,10,12,12a-tetrahydroxy-1,11-dioxo-1,4,4a,5,5a,6,11,12a-octahydro-naphthacene-2-carboxylic acid amide] | < 4 µg/mL | < 4 µg/mL | > 8 µg/mL | < 4 µg/mL | < 4 µg/mL | 4 to 8 µg/mL (≈ 7.91 to 15.8 µM) | < 4 µg/mL | > 75 µg/mL | > 75 µg/mL | 0.48 mg/kg |  |  |  |  | 
7 | CN(C)[C@@H]1C(O)=C(C(N)=O)C(=O)[C@@]2(O)C(O)=C3C(=O)c4c(O)ccc(CNOCC(F)F)c4C[C@H]3C[C@@H]12 [DX] | < 4 µg/mL | < 4 µg/mL | 4 to 8 µg/mL (≈ 7.64 to 15.3 µM) | < 4 µg/mL | 4 to 8 µg/mL (≈ 7.64 to 15.3 µM) | < 4 µg/mL | < 4 µg/mL | < 35 µg/mL | 35 to 75 µg/mL (≈ 66.9 to 143 µM) | 0.58 mg/kg |  |  |  |  | 
8 | CN(C)[C@@H]1C(O)=C(C(N)=O)C(=O)[C@@]2(O)C(O)=C3C(=O)c4c(O)ccc(CNOCC(F)(F)F)c4C[C@H]3C[C@@H]12 [DZ] | < 4 µg/mL | < 4 µg/mL | > 8 µg/mL | < 4 µg/mL | 4 to 8 µg/mL (≈ 7.39 to 14.8 µM) | < 4 µg/mL | < 4 µg/mL | < 35 µg/mL | < 35 µg/mL | 1.11 mg/kg |  |  |  |  | 
9 | C[C@H]1c2cccc(O)c2C(=O)C2=C(O)[C@]3(O)C(=O)C(C(N)=O)=C(O)[C@@H](N(C)C)[C@@H]3[C@@H](O)[C@@H]21 [Doxycycline, reference compound] | < 4 µg/mL | < 4 µg/mL | < 4 µg/mL | < 4 µg/mL | < 4 µg/mL |  | < 4 µg/mL | > 75 µg/mL | > 75 µg/mL | 0.13 mg/kg |  | 100% | 4 to 8 µg/mL (≈ 9 to 18 µM) | 100 (5/5) Percent | 
10 | CN(C)c1ccc(O)c2c1C[C@H]1C[C@H]3[C@H](N(C)C)C(O)=C(C(N)=O)C(=O)[C@@]3(O)C(O)=C1C2=O [Minocycline, reference compound] | < 4 µg/mL | < 4 µg/mL | < 4 µg/mL | < 4 µg/mL | < 4 µg/mL |  | < 4 µg/mL | > 75 µg/mL | > 75 µg/mL |  |  |  | 4 to 8 µg/mL (≈ 8.74 to 17.5 µM) |  | 0.137 min
11 | CON(C)Cc1ccc(O)c2c1C[C@H]1C[C@H]3[C@H](N(C)C)C(O)=C(C(N)=O)C(=O)[C@@]3(O)C(O)=C1C2=O [P] | < 4 µg/mL | < 4 µg/mL | 4 to 8 µg/mL (≈ 8.2 to 16.4 µM) | < 4 µg/mL | 4 to 8 µg/mL (≈ 8.2 to 16.4 µM) |  | < 4 µg/mL | > 75 µg/mL | > 75 µg/mL | 0.13 mg/kg |  | 100% | 4 to 8 µg/mL (≈ 8.2 to 16.4 µM) |  | 
12 | C/C(=N\OC(C)(C)C)c1cc(N)c(O)c2c1C[C@H]1C[C@H]3[C@H](N(C)C)C(O)=C(C(N)=O)C(=O)[C@@]3(O)C(O)=C1C2=O [Q, (4S,4aS,5aR,12aS)-9-Amino-7-(1-tert-butoxyimino-ethyl)-4-dimethylamino-3,10,12,12a-tetrahydroxy-1,11-dioxo-1,4,4a,5,5a,6,11,12a-octahydro-naphthacene-2-carboxylic acid amide] | < 4 µg/mL | < 4 µg/mL | 4 to 8 µg/mL (≈ 7.37 to 14.7 µM) | < 4 µg/mL | 4 to 8 µg/mL (≈ 7.37 to 14.7 µM) | 4 to 8 µg/mL (≈ 7.37 to 14.7 µM) | < 4 µg/mL | < 35 µg/mL | < 35 µg/mL | 0.45 mg/kg |  | 100% |  |  | 
13 | CO/N=C/c1cc(N(C)C)c2c(c1O)C(=O)C1=C(O)[C@]3(O)C(=O)C(C(N)=O)=C(O)[C@@H](N(C)C)[C@@H]3C[C@@H]1C2 [V, (4S,4aS,5aR,12aS)-4,7-Bis-dimethylamino-3,10,12,12a-tetrahydroxy-9-(methoxyimino-methyl)-1,11-dioxo-1,4,4a,5,5a,6,11,12a-octahydro-naphthacene-2-carboxylic acid amide] | < 4 µg/mL | < 4 µg/mL | > 8 µg/mL | < 4 µg/mL | > 8 µg/mL | 4 to 8 µg/mL (≈ 7.77 to 15.5 µM) | < 4 µg/mL | < 35 µg/mL | < 35 µg/mL | 1.4 mg/kg |  |  |  |  | 
